Measurements taken from ChEMBL document CHEMBL1201862, “PubChem BioAssay data set” (2004).
The source made the active and inactive calls.

How the values were obtained:
[1] = target: T1, Protein RecA (Mycobacterium tuberculosis, UniProt P9WHJ3); assay: Fluorescence Cell-Free Homogeneous Dose Retest to Identify Inhibitors of RecA-Intein Splicing Activity. [Related pubchem assays (depositor defined):AID2097, AID2223, AID489010, AID492950]; assay type: functional
T1 sequence (P9WHJ3 whole entry): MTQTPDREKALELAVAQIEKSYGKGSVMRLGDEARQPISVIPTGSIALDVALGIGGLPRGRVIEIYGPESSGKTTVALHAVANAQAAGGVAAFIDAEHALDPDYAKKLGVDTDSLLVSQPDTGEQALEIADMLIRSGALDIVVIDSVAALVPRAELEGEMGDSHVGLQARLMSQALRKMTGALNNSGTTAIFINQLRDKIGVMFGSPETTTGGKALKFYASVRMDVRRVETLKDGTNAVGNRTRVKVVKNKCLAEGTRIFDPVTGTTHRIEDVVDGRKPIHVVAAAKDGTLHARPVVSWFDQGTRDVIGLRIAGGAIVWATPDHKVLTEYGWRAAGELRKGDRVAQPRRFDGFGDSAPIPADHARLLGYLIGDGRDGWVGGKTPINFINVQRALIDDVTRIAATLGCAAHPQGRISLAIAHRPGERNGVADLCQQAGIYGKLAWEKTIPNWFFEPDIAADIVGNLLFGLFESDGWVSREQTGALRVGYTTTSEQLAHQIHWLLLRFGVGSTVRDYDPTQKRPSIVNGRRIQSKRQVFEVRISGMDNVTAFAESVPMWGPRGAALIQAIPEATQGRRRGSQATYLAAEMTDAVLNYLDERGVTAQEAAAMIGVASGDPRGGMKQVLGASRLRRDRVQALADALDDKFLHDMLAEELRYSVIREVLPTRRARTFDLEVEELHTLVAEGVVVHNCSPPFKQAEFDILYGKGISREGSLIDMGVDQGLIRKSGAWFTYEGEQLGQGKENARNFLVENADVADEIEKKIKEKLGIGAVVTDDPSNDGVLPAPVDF

[2] = target: T2, Histone-lysine N-methyltransferase NSD2 (Homo sapiens, UniProt O96028); assay type: biochemical
T2 sequence (O96028 whole entry): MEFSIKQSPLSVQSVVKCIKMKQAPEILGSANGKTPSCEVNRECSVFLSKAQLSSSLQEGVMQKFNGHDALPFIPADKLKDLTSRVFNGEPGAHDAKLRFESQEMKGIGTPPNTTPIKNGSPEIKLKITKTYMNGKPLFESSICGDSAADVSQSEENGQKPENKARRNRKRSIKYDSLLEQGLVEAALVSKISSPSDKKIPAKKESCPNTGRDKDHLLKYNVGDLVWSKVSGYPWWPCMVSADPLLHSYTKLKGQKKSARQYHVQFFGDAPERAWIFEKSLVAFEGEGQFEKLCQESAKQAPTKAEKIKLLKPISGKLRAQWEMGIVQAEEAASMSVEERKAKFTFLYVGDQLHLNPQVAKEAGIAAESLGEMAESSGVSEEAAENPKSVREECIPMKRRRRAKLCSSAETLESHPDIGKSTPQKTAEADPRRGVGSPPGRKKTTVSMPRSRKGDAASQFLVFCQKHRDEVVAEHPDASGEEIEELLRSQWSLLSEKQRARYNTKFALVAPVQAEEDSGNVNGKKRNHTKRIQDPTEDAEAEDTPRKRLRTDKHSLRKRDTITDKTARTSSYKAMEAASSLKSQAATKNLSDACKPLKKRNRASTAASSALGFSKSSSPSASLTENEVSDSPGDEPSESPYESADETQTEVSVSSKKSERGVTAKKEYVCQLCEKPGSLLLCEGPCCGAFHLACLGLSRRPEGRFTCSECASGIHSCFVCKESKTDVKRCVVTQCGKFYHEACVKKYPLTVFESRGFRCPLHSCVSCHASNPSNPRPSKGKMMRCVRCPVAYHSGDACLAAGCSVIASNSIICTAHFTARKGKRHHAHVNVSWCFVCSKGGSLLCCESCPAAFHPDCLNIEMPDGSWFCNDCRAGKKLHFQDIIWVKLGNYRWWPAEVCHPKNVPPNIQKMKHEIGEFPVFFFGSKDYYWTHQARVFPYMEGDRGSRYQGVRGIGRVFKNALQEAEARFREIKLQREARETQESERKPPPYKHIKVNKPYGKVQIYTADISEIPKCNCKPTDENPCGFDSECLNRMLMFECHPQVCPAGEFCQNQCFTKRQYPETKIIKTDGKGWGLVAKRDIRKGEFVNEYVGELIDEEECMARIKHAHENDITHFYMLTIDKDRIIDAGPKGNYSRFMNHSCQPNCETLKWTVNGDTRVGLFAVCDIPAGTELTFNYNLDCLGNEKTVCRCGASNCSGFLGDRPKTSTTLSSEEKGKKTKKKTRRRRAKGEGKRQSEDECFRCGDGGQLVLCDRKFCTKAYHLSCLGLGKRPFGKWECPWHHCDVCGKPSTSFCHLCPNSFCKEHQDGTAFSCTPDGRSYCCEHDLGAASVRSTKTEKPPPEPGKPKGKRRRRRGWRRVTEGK

| SMILES | EC50 [1] | AC50 [2] |
| --- | --- | --- |
| Cc1nc2c(=O)n(C)c(=O)nc-2n(C)n1 | 20.9 nM (active) | – |
| O=C1C=C(c2c(O)ccc3ccccc23)c2ccccc2C1=O | – | 1700 nM (active) |
| Oc1nc(Nc2ccccc2Cl)cc2ccccc12 | 1990 nM (active) | – |
| O=C(CCN1C(=O)/C(=C\c2ccco2)SC1=S)Nc1ccc(C(=O)O)c(O)c1 | – | 13800 nM (active) |
